Test results taken from patent publication US11098026B2, “Fused bicyclic compounds, compositions and applications thereof” (IMPETIS BIOSCIENCES LIMITED, priority 2017, dated 2021).

Target: T1, human GPR91 receptor (Homo sapiens, UniProt Q9BXA5)
T1 construct: expressed in transfected cells; host or cells: CHO-K1 NFAT cells
T1 sequence (Q9BXA5 1-334): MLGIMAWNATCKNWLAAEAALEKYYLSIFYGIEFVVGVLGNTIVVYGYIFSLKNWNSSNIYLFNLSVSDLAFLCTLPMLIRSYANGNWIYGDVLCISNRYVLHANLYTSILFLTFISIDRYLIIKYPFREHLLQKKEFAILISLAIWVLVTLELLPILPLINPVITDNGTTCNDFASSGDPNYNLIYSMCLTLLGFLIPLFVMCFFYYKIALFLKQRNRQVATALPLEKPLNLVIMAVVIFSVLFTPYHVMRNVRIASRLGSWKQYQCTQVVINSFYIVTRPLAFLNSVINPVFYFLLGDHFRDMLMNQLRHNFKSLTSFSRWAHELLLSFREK
Experiment: Human GPR91 calcium mobilization assay
Format: cell-based
Settings: CHO-K1 NFAT cells over expressing human GPR91 receptor; Fluo4 AM; agonist sodium succinate; flex station; read-out: hGPR91 IC50 (μM)*
Experimental: Human GPR91 Calcium Mobilization Assay
To determine IC50 in CHO NFAT cells over expressing human GPR91 receptor calcium mobilization assay in flex station mode was carried out.
Grow CHO-K1 NFAT cells over expressing human GPR91 receptors in alpha MEM media were supplemented with 10% FBS (heat inactivated), 0.5 mg/ml of G-418, 0.5 mg/ml of Zeocin and 0.6 mg/ml of Hygromycin B.
The cells were seeded at least 21 hours before the experiment at the density of 25000/well in 96 well plate (Corning cat #no. 3603). It was made sure that cells were at least 95% confluent on the day of assay. No antibiotics were used for seeding purpose.
On the day of assay the media was discarded from plates and plates were washed with 100 μl of HBSS assay buffer. The plates were loaded with Fluo4 AM at 2 μM concentration. Pluronic F-127 dye was solubilized in calcium assay buffer containing 0.1% BSA, i.e., 20 μl dye+20 μl Pluronic F127 for 10 ml. Appropriate amounts of 100× probenecid was added to the loading mixture 1× final (100 μl per 10 ml). Total volume of dye loaded was made 100 μl. The plate was then wrapped in aluminium foil to protect from light and were incubated for 90 mins at 37 degrees in cell culture incubator. At the end of incubation the plates was washed again with 100 μl of HBSS buffer without BSA and 75 μl of HBSS buffer was added (without BSA) to the plate.
Further, 8 point-Dose response curve of the compounds of the present disclosure was prepared in 100% DMSO followed by 57.14-fold dilution to 1.75× in 1.75% DMSO in assay buffer. 100 μL of 1.75×NCE was added to the wells as shown below and incubated at room temp on orbital shaker at 300 rpm for 15 min. Flexstation [excitation @ 485 nm and emission @ 525 nm] for a total time of 60 seconds. 25 μL of 8× agonist (800 μM sodium succinate) was added to each well using the flexstation after establishing the baseline for 20 sec, Measurement—Max-Min over 60 sec. Using the above protocol results obtained are tabulate din the Table 1 below: […]

SMILES: FC(F)(F)c1cc(Oc2cccc3ccncc23)ccc1Oc1cccc(CCc2nnn[nH]2)c1 [Compound D-2, 8-[4-[3-[2-(1H-tetrazol-5-yl)ethyl]phenoxy]-3-(trifluoromethyl)phenoxy]isoquinoline]
- IC50: 5 to 10 µM

SMILES: O=C(O)Cc1cccc(Oc2ccc(Oc3cccc4ccncc34)cc2C2CC2)c1 [Compound A-38, 2-[3-[2-cyclopropyl-4-(8-isoquinolyloxy)phenoxy]phenyl]acetic acid]
- IC50: < 5 µM

SMILES: O=C(O)Cc1cccc(Oc2ccc(Oc3ccc(F)c4ccncc34)cc2C(F)(F)F)c1 [Compound A-8, 2-[3-[4-[(5-fluoro-8-isoquinolyl)oxy]-2-(trifluoromethyl)phenoxy]phenyl]acetic acid]
- IC50: < 5 µM

SMILES: O=C(O)Cc1cccc(Oc2ccc(Oc3cccc4[nH]ncc34)cc2C(F)(F)F)c1 [Compound A-48, 2-[3-[4-(1H-indazol-4-yloxy)-2-(trifluoromethyl)phenoxy]phenyl]acetic acid]
- IC50: < 5 µM

SMILES: CN1CCc2cccc(Oc3ccc(Oc4cccc(CCC(=O)O)c4)c(C(F)(F)F)c3)c2C1 [Compound A-10, 3-[3-[4-[(2-methyl-3,4-dihydro-1H-isoquinolin-8-yl)oxy]-2-(trifluoromethyl)phenoxy]phenyl]propanoic acid]
- IC50: > 10 µM

SMILES: O=C(O)Cc1cccc(Oc2ccc(Oc3cccc4ccnc(Cl)c34)cc2C(F)(F)F)c1 [Compound A-40, 2-[3-[4-[(1-chloro-8-isoquinolyl)oxy]-2-(trifluoromethyl)phenoxy]phenyl]acetic acid]
- IC50: < 5 µM

SMILES: Cn1ncc2cccc(Oc3ccc(Oc4cccc(CC(=O)O)c4)c(C(F)(F)F)c3)c21 [Compound A-5, 2-[3-[4-(1-methylindazol-7-yl)oxy-2-(trifluoromethyl)phenoxy]phenyl]acetic acid]
- IC50: < 5 µM

SMILES: O=C(O)CCc1cccc(Oc2ccc(Oc3cccc4c3OCCO4)cc2C(F)(F)F)c1 [Compound A-11, 3-[3-[4-(2,3-dihydro-1,4-benzodioxin-5-yloxy)-2-(trifluoromethyl)phenoxy]phenyl]propanoic acid]
- IC50: > 10 µM

SMILES: O=C(O)Cc1cccc(Oc2ccc(Oc3cccc4nncn34)cc2C(F)(F)F)c1 [Compound A-17, 2-[3-[4-([1,2,4]triazolo[4,3-a]pyridin-5-yloxy)-2-(trifluoromethyl)phenoxy]phenyl]acetic acid]
- IC50: > 10 µM

SMILES: O=C(O)Cc1cccc(Oc2ccc(Oc3ccc4ccn(CC(=O)O)c4c3)cc2C(F)(F)F)c1 [Compound A-33, 2-[3-[4-[1-(carboxymethyl)indol-6-yl]oxy-2-(trifluoromethyl)phenoxy]phenyl]acetic acid]
- IC50: < 5 µM

SMILES: O=C(O)CCc1cccc(Oc2ccc(Oc3cccc4cccnc34)cc2C(F)(F)F)c1 [Compound A-12, 3-[3-[4-(8-quinolyloxy)-2-(trifluoromethyl)phenoxy]phenyl]propanoic acid]
- IC50: > 10 µM

SMILES: O=C(O)Cc1cccc(Oc2ccc(Oc3ccc4cnc(C5COC5)n4c3)cc2C(F)(F)F)c1 [Compound B-5, 2-[3-[4-[3-(oxetan-3-yl)imidazo[1,5-a]pyridin-6-yl]oxy-2-(trifluoromethyl)phenoxy]phenyl]acetic acid]
- IC50: 5 to 10 µM

SMILES: O=C(O)Cc1cccc(Oc2ccc(Oc3ccc4ncn(C5COC5)c4c3)cc2C(F)(F)F)c1 [Compound A-26, 2-[3-[4-[3-(oxetan-3-yl)benzimidazol-5-yl]oxy-2-(trifluoromethyl)phenoxy]phenyl]acetic acid]
- IC50: < 5 µM

SMILES: O=C(O)Cc1cccc(Oc2ccc(Oc3cccc4ccncc34)c(C(F)(F)F)c2)c1 [Compound E-1, 2-[3-[4-(8-isoquinolyloxy)-3-(trifluoromethyl)phenoxy]phenyl]acetic acid]
- IC50: > 10 µM

SMILES: O=C(O)Cc1cccc(Oc2ccc(Oc3cccc4cncn34)cc2C(F)(F)F)c1 [Compound B-1, 2-[3-[4-imidazo[1,5-a]pyridin-5-yloxy-2-(trifluoromethyl)phenoxy]phenyl]acetic acid]
- IC50: < 5 µM

SMILES: O=C(O)Cc1cccc(Oc2ccc(Oc3ccc4c(c3)NCCO4)cc2C(F)(F)F)c1 [Compound A-18, 2-[3-[4-(3,4-dihydro-2H-1,4-benzoxazin-6-yloxy)-2-(trifluoromethyl)phenoxy]phenyl]acetic acid]
- IC50: < 5 µM

SMILES: O=C(O)CCc1cccc(Oc2ccc(Oc3cccc4nccn34)cc2C(F)(F)F)c1 [Compound A-37, 3-[3-[4-imidazo[1,2-a]pyridin-5-yloxy-2-(trifluoromethyl)phenoxy]phenyl]propanoic acid]
- IC50: > 10 µM

SMILES: Cc1ncc2cccc(Oc3ccc(Oc4cccc(CC(=O)O)c4)c(C(F)(F)F)c3)n12 [Compound B-3, 2-[3-[4-(3-methylimidazo[1,5-a]pyridin-5-yl)oxy-2-(trifluoromethyl)phenoxy]phenyl]acetic acid]
- IC50: < 5 µM

SMILES: O=C(O)CCc1cccc(Oc2ccc(Oc3cccc4c3CNCC4)cc2C(F)(F)F)c1 [Compound A-43, 3-[3-[4-(1,2,3,4-tetrahydroisoquinolin-8-yloxy)-2-(trifluoromethyl)phenoxy]phenyl]propanoic acid]
- IC50: > 10 µM

SMILES: O=C(O)Cc1cccc(Oc2ccc(Oc3cccc4ccncc34)cc2C(F)(F)F)c1 [Compound A-1, 2-[3-[4-(8-isoquinolyloxy)-2-(trifluoromethyl)phenoxy]phenyl]acetic acid]
- IC50: < 5 µM

SMILES: FC(F)(F)c1cc(Oc2cccc3ccncc23)ccc1Oc1cccc(Cc2nnn[nH]2)c1 [Compound D-3, 8-[4-[3-(1H-tetrazol-5-ylmethyl)phenoxy]-3-(trifluoromethyl)phenoxy]isoquinoline]
- IC50: 5 to 10 µM

SMILES: O=C(O)Cc1cccc(Oc2ccc(Oc3ccc4ccn(C5COC5)c4c3)cc2C(F)(F)F)c1 [Compound A-20, 2-[3-[4-[1-(oxetan-3-yl)indol-6-yl]oxy-2-(trifluoromethyl)phenoxy]phenyl]acetic acid]
- IC50: < 5 µM

SMILES: O=C(O)CCc1cccc(Oc2ccc(Oc3ccc4[nH]ncc4c3)cc2C(F)(F)F)c1 [Compound A-45, 3-[3-[4-(1H-indazol-5-yloxy)-2-(trifluoromethyl)phenoxy]phenyl]propanoic acid]
- IC50: < 5 µM

SMILES: Cc1nc2ccc(Oc3ccc(Oc4cccc(CC(=O)O)c4)c(C(F)(F)F)c3)cc2n1C1COC1 [Compound A-27, 2-[3-[4-[2-methyl-3-(oxetan-3-yl)benzimidazol-5-yl]oxy-2-(trifluoromethyl)phenoxy]phenyl]acetic acid]
- IC50: < 5 µM

SMILES: Cc1ncc2c(Oc3ccc(Oc4cccc(CC(=O)O)c4)c(C(F)(F)F)c3)cccn12 [Compound B-4, 2-[3-[4-(3-methylimidazo[1,5-a]pyridin-8-yl)oxy-2-(trifluoromethyl)phenoxy]phenyl]acetic acid]
- IC50: 5 to 10 µM

SMILES: O=C(O)CCc1cccc(Oc2ccc(Oc3cccc4cnncc34)cc2C(F)(F)F)c1 [Compound A-3, 3-[3-[4-phthalazin-5-yloxy-2-(trifluoromethyl)phenoxy]phenyl]propanoic acid]
- IC50: < 5 µM

SMILES: O=C(O)Cc1cccc(Oc2ccc(Oc3ccc(Cl)c4cnncc34)cc2C(F)(F)F)c1 [Compound A-4, 2-[3-[4-(8-chlorophthalazin-5-yl)oxy-2-(trifluoromethyl)phenoxy]phenyl]acetic acid]
- IC50: < 5 µM

SMILES: NC(=O)CCc1cccc(Oc2ccc(Oc3cccc4ccncc34)cc2C(F)(F)F)c1 [Compound C-2, 3-[3-[4-(8-isoquinolyloxy)-2-(trifluoromethyl)phenoxy]phenyl]propanamide]
- IC50: 5 to 10 µM
